Data on 25 compounds can be found in US6642031B2, “Microorganisms with ability to degrade indole and enzymes therefrom” (Genencor International, Inc., priority 1995, dated 2003).

The test system of data set [1] is indole oxidase. The data set is described as follows: Substrate depletion assay with cell extract, GC/MS and visible spectrum. It counts as biochemical, Pseudomonas putida.
Experimental: Substrate depletion assays. Substrate depletion assays were carried out in 1.5 ml to 10 ml reactions containing crude SCF, 4.0 mM NADH or NADPH, 2.0 μM FAD, and 1.0 mM indole in 50 mM Tris-HCl (pH 7.5 or 8.0). Substrate and product concentrations were determined by incubating the reactions for the specified period of time with shaking at 250 rpm, extracting 1.0 ml of the aqueous reaction with ethyl acetate and analyzing the extract by gas chromatography-mass spectrometry (GC/MS) described below.
GC/MS was carried out with a Hewlett-Packard model 5890 gas chromatograph equipped with a Hewlett-Packard DB-5 capillary column (inside diameter 0.2 mm by 25 m) and a Hewlett-Packard model 5971 mass selective detector (electron impact ionization 70 eV). The column temperature was programmed from 50 to 325° C. at 10° C./min with a helium flow of 12 cm/s. Temperatures of the injection port and transfer line were 250 and 280° C., respectively.
After indole was completely consumed the reaction mixture was diluted into dimethylformamide (DMF) and the visible spectrum of the resultant blue solution was measured.
The next data set has as its system Strain WW2 whole cells. The data set is described as follows: Whole cell oxygen uptake with indole and related substrates (Clark electrode oxygraph). It is filed as cell-based, Pseudomonas putida. The conditions noted are these: for Relative % (oxygen uptake rate) / Oxygen Uptake: substrate 0.6 mM; for Relative % (oxygen uptake rate): indole-dependent rate defined as 100%; for Oxygen Uptake: whole cells 4.5 h after indole induction, corrected for uptake without substrate. On the procedure:
(§1) Carbon utilization of WW2 was determined by its ability to grow on alternate carbon sources. The bulk of these were determined by Biolog assay. […] In addition, substrate-dependent oxygen consumption of whole resting cells was measured by oxygraph assay as described in Example 11.
(§2) Indole oxidation activity in whole cells was routinely determined by measuring oxygen uptake rates with a Biological Oxygen Monitor (Yellow Springs Instrument Co., model 5300, Ohio) equipped with a Clark electrode. Reactions were carried out in a stirred, 1.5 ml reaction chamber at 25° C. Washed cells of strain WW2 suspended in 50 mM Tris-HCl (pH 7.5) to an A600 of 2.0 were pre-equilibrated at 25° C. before their addition to the reaction chamber. After recording the endogenous oxygen uptake rate, indole or other substrates (100 mM in dimethylformamide) were added to a final concentration of 0.3 to 1 mM. […] Reported rates were corrected for oxygen uptake observed in the absence of substrate. In the case of indoxyl, the reported rate was also corrected for the spontaneous oxygen consumption rate of indoxyl oxidation in the absence of indole-induced cells.

Data set [2] relates to indole oxidase. The data set is described as follows: Cell-free oxygen uptake in WW2 indole-induced cell extract. It is filed as biochemical, Pseudomonas putida. As to conditions: for Oxygen Uptake: 1.82 mg/ml cell extract protein, 1 mM NADH, pH 7.5, corrected for uptake without substrate.
The test system of data set [3] is indole oxidation activity in strain WW2 crude cell extract. The data set is described as follows: Cell-free indole-dependent NAD(P)H oxidation, cofactor requirements (spectrophotometric). It is filed as biochemical, Pseudomonas putida. On the procedure:
Spectrophotometric assavs. Cell-free, indole-dependent NADH oxidation was measured spectrophotometrically with a Hewlett-Packard 8452A diode array spectrophotometer. The reactions (1.0 ml volume) contained crude soluble cytosolic fraction (SCF), 3.0 mM NADH, 2.0 mM indole and 50 mM Tris-HCl (pH 7.5). The reactions were initiated by addition of NADH and the initial rates were corrected for background NADH oxidation rates, which were measured in the absence of indole. NADPH was substituted for NADH to compare its ability to serve as an electron donor for indole oxidation activity.
Cofactor requirement of the indole oxidizing activity in the crude soluble cytosolic fraction was investigated in spectrophotometric assays as described in Example 6.

For another data set, the system named is Strain WW2. The data set is described as follows: Induction and sustaining of indole oxidation activity in growing cultures (oxygen uptake with indole). It is filed as cell-based, Pseudomonas putida. As to conditions: for Oxygen Uptake Rate, Rate 3 h After Re-Addition: re-addition (indole 0.2 g/l and/or succinate 2 g/l) to 4 h indole-induced cells, measured 7 h after initial induction.
Excerpt: Several methods were examined to induce cultures of strain Pseudomonas putida WW2 for indole oxidation during growth. These included growing the strain in MSB containing 0.2% succinate with: (i) a single addition of 0.02% indole and 0.2% succinate during late log phase; (ii) indole provided in the vapor phase, during growth, from a small cloth bag containing indole crystals suspended above the surface of the medium; or (iii) both indole vapor during growth and direct addition of 0.02% indole and 0.2% succinate during late log phase.
as §2

For data set [4], the system named is Pseudomonas putida strain WW2. The data set is described as follows: Growth on carbon sources in MSB liquid culture or agar plates. The conditions noted are these: for support of growth as carbon source (words): MSB liquid medium or agar plates. Here is the method: Cultivation of the organism. Growth was measured turbidimetrically at 600 nm. […] Additional potential carbon sources were assessed in MSB supplemented with the carbon alternate source (0.2% (w/v) unless specified otherwise) or on plates provided with volatile substrates in the vapor phase. Growth was also conducted in 14 L fermenters in the fed batch mode. […] To study enzyme activity of indole oxidase, the organism was cultured in 50 or 500 ml of media (in 250 ml or 2.8 L nominal volume flasks, respectively) containing minimal salts, succinate and 0.02% indole at 30° C. with rotary shaking (200 rpm).
as §1

Where [5] appears, read: substrate 0.3 mM, indole = 100%.

“And” between values parts separate entries of the source, which are not always exact repeats. Equal entries are not always repeated. Where two headings read alike, the source gives them in different places.

Turning to `C1=Cc2ccccc2C1` [indene], the “2-indanone, single detectable product, share of total ion current” value in the data set on indole oxidase [1] (crude SCF with NADPH, GC/MS) is recorded as “approximately 20%”.

Regarding `Nc1ccccc1C(=O)O` [Anthranilate, Anthranilic acid], in the data set on Strain WW2 whole cells, the “Relative % (oxygen uptake rate)” value is less than 1% and the “Oxygen Uptake” value is 0.6 O2 %/min/ODU. In the data set with Strain WW2 whole cells (whole resting cells), the “stimulation of oxygen uptake rate” value was “no significant stimulation”.

Turning to `COc1ccc2[nH]ccc2c1` [5-MeO-Indole], in the data set on indole oxidase [2], the “Relative % (oxygen uptake rate)” value is given as 7%. The “Oxygen Uptake” value in the data set with indole oxidase [2] (substrate 0.3 mM) was 1 O2 %/min/ODU.

Turning to `Oc1cccc2[nH]ccc12` [4-OH-Indole], the “Relative % (oxygen uptake rate)” value with indole oxidase [2] stood at 17%. In addition, the “Oxygen Uptake” value with indole oxidase [2] (substrate 0.3 mM) came out at 2.5 O2 %/min/ODU.

For `c1ccc2occc2c1` [2,3-Benzofuran], the “Oxygen Uptake” value with indole oxidase [2] (substrate 0.3 mM) was 0 O2 %/min/ODU; in the data set on Strain WW2 whole cells, 3.5 O2 %/min/ODU. Further, the “Relative % (oxygen uptake rate)” value in the data set with indole oxidase [2] (setting [5]) was found to be 0%; with Strain WW2 whole cells, 30%.

As to `Brc1ccc2[nH]ccc2c1` [5-Br-Indole], in the data set on indole oxidase [2] (substrate 0.3 mM), the “Oxygen Uptake” value amounted to 0 O2 %/min/ODU. Besides, the “Relative % (oxygen uptake rate)” value with indole oxidase [2] (setting [5]) is 0%.

As for `O=S(=O)([O-])[O-].O=S(=O)([O-])[O-].[Fe+2].[NH4+].[NH4+]` [Fe^++, Fe(NH4)2SO4], the “effect of added cofactor on activity” value in data set [3] was “stimulatory effect”.

Regarding `Cc1cccc2[nH]ccc12` [4-Me-Indole], the “Oxygen Uptake” value in the data set with indole oxidase [2] (substrate 0.3 mM) came out at 1 O2 %/min/ODU. For the same compound, the “Relative % (oxygen uptake rate)” value with indole oxidase [2] (setting [5]) worked out at 7%.

As to `Clc1cccc2[nH]ccc12` [4-Cl-Indole], the “Oxygen Uptake” value in the data set with indole oxidase [2] (substrate 0.3 mM) is recorded as 0 O2 %/min/ODU. Moreover, in the data set with indole oxidase [2] (setting [5]), the “Relative % (oxygen uptake rate)” value worked out at 0%.

`O=[N+]([O-])c1ccc2[nH]ccc2c1` [5-NO2-Indole]: in the data set with indole oxidase [2] (substrate 0.3 mM), the “Oxygen Uptake” value stood at 0 O2 %/min/ODU. In addition, the “Relative % (oxygen uptake rate)” value with indole oxidase [2] (setting [5]) was 0%.

For the compound `Cc1c[nH]c2ccccc12` [3-Me-Indole], in the data set on indole oxidase [2] (substrate 0.3 mM), the “Oxygen Uptake” value is recorded as 2 O2 %/min/ODU. Moreover, the “Relative % (oxygen uptake rate)” value in the data set on indole oxidase [2] (setting [5]) is recorded as 14%.

In the case of `Clc1ccc2cc[nH]c2c1` [6-Cl-Indole], the “Oxygen Uptake” value in the data set on indole oxidase [2] (substrate 0.3 mM) stood at 7 O2 %/min/ODU. Further, in the data set on indole oxidase [2] (setting [5]), the “Relative % (oxygen uptake rate)” value is recorded as 48%.

Consider `O=C1Nc2ccccc2C1=O` [Isatin, 2,3-dioxoindole], for which, in the data set with indole oxidase [2] (substrate 0.3 mM), the “Oxygen Uptake” value was found to be 0 O2 %/min/ODU. The “Relative % (oxygen uptake rate)” value in the data set on indole oxidase [2] (setting [5]) is recorded as 0%.

Consider `c1ccc2[nH]ccc2c1` [Indole], for which the “conversion of indole to indigo” value with indole oxidase [1] (4.0 mM NADPH as electron donor, from absorption at 610 nm in DMF) is reported as 20%. The “Oxygen Uptake” value in the data set on indole oxidase [2] (substrate 0.3 mM) stood at 14.5 O2 %/min/ODU; with Strain WW2 whole cells, 11.8 O2 %/min/ODU. Also, the “Relative % (oxygen uptake rate)” value in the data set with indole oxidase [2] (setting [5]) and in the data set on Strain WW2 whole cells was 100% each time. Besides, the “Oxygen Uptake Rate, Rate After 4 h Induction with Indole” value with Strain WW2 (induced with indole 0.2 g/l at 16 h growth, before re-addition) is 14.4 O2 %/min/ODU and 13.3 O2 %/min/ODU and 14.1 O2 %/min/ODU and 12.1 O2 %/min/ODU. Moreover, in the data set with Strain WW2, the “Oxygen Uptake Rate, Rate 3 h After Re-Addition” value came out at 13.8 O2 %/min/ODU. Besides, the “support of growth as carbon source (words)” value in data set [4] is reported as “good carbon source”. Also, in data set [4] (liquid culture), the “concentration above which toxic” value was “exceeded 400 mg/L”.

For the compound `c1ccc2ccccc2c1` [Naphthalene], in the data set on indole oxidase [2], the “activity of the enzyme with the substrate” value is listed as “very low activity”. The “Relative % (oxygen uptake rate)” value in the data set on Strain WW2 whole cells and with Strain WW2 whole cells (listed as naphthalene) was 9% throughout. In the data set on Strain WW2 whole cells, the “Oxygen Uptake” value was found to be 1.1 O2 %/min/ODU. For the same compound, the “support of growth as carbon source (words)” value in data set [4] is “did not support growth”; in data set [4] (listed as naphthalene), “not to support growth”.

With `NC(=O)C1=CN([C@@H]2O[C@H](COP(=O)(O)OP(=O)(O)OC[C@H]3O[C@@H](n4cnc5c(N)ncnc54)[C@H](OP(=O)(O)O)[C@@H]3O)[C@@H](O)[C@H]2O)C=CC1` [NADPH, nicotinamide adenine phosphate dinucleotide], in the data set with indole oxidase [1] (4.0 mM NADPH instead of NADH, cell extract 0.57 mg/ml, pH 8), the “rate of indole removal relative to that observed with NADH” value was “approximately 60%”.

With `Oc1c[nH]c2ccccc12` [Indoxyl, 3-hydroxyindole], in the data set with Strain WW2 whole cells (relative to indole), the “increase in oxygen uptake rate” value was found to be 1.7 fold. Further, in the data set with Strain WW2 whole cells, the “Relative % (oxygen uptake rate)” value came out at 177% and the “Oxygen Uptake” value worked out at 20.9 O2 %/min/ODU.

In the case of `c1ccc2sccc2c1` [Thianaphthene], the “Oxygen Uptake” value in the data set on indole oxidase [2] (substrate 0.3 mM) turned out to be 1 O2 %/min/ODU; in the data set on Strain WW2 whole cells, 3.1 O2 %/min/ODU. For the same compound, the “Relative % (oxygen uptake rate)” value in the data set with indole oxidase [2] (setting [5]) was determined as 7%; in the data set with Strain WW2 whole cells, 26%.

In the case of `Cc1cc2nc3c(=O)[nH]c(=O)nc-3n(C[C@H](O)[C@H](O)[C@H](O)COP(=O)(O)OP(=O)(O)OC[C@H]3O[C@@H](n4cnc5c(N)ncnc54)[C@H](O)[C@@H]3O)c2cc1C` [FAD, flavin adenine dinucleotide], the “stimulation of activity by cofactor added to the assay” value in data set [3] turned out to be 3 fold.

Turning to `Fc1ccc2[nH]ccc2c1` [5-F-Indole, 5-fluoroindole], the “Oxygen Uptake” value in the data set on indole oxidase [2] (substrate 0.3 mM) amounted to 13.5 O2 %/min/ODU; in the data set on Strain WW2 whole cells, 5.9 O2 %/min/ODU. The “Relative % (oxygen uptake rate)” value with indole oxidase [2] (setting [5]) was found to be 93%; in the data set with Strain WW2 whole cells, 50%.

For the compound `O=C(O)CCC(=O)O` [Succinate], the “Oxygen Uptake Rate, Rate 3 h After Re-Addition” value in the data set on Strain WW2 is on record as 1.8 O2 %/min/ODU.

For the compound `Cc1cc2nc3c(=O)[nH]c(=O)nc-3n(C[C@H](O)[C@H](O)[C@H](O)COP(=O)(O)O)c2cc1C` [FMN], in data set [3], the “effect of added cofactor on activity” value is recorded as “no effect”.

`Cc1cccc2cc[nH]c12` [7-Me-Indole]: the “Oxygen Uptake” value turned out to be 12.5 O2 %/min/ODU with indole oxidase [2] (substrate 0.3 mM) and 4.6 O2 %/min/ODU in the data set with Strain WW2 whole cells. The “Relative % (oxygen uptake rate)” value turned out to be 86% in the data set with indole oxidase [2] (setting [5]) and 39% with Strain WW2 whole cells.

Regarding `Clc1ccc2[nH]ccc2c1` [5-Cl-Indole], the “Oxygen Uptake” value in the data set with indole oxidase [2] (substrate 0.3 mM) was 4 O2 %/min/ODU. The “Relative % (oxygen uptake rate)” value with indole oxidase [2] (setting [5]) is 28%.

With `Oc1ccc2[nH]ccc2c1` [5-OH-Indole], the “Oxygen Uptake” value with indole oxidase [2] (substrate 0.3 mM) is recorded as 3.5 O2 %/min/ODU. In addition, in the data set on indole oxidase [2] (setting [5]), the “Relative % (oxygen uptake rate)” value turned out to be 24%.
